PMC4887716 (Iranian Journal of Basic Medical Sciences, 2016)
Where two headings read alike, the source gives them in different places.

What was measured:
P-gp [1] = assay: In situ single pass intestinal perfusion; details: for increase of digoxin Peff: in situ SPIP
P-gp [2] = details: MDR-MDCK cells; cited from earlier work
P-gp [3] = details: cited from earlier work
[4] = cited from earlier work
Caco-2 cells = assay: In vitro cytotoxicity study; type: cell-based, human; details: clemastine 0.01-10 µM, 24 hr incubation
[5] = cited from earlier work; remark: listed apart in the source

SMILES	Peff of digoxin alone (control) (P-gp [1]; 20 µM digoxin, rat jejunum SPIP)	increase of digoxin Peff (P-gp [1]; 0.5 µM clemastine)	increase of digoxin Peff (P-gp [1]; 10 µM clemastine) [%]	P-gp substrate status from efflux in presence of cyclosporine-A (P-gp [2])	P-gp substrate classification (P-gp [3])	solubility in water [4]	cytotoxic effect on Caco-2 cells (cell viability, MTT) (Caco-2 cells)	elimination half-life [5]	therapeutic level in blood plasma [5] [ng/mL]	therapeutic level in blood plasma ([5]; converted from ng/ml) [nM]
C[C@H]1O[C@@H](O[C@H]2[C@@H](O)C[C@H](O[C@H]3[C@@H](O)C[C@H](O[C@H]4CC[C@@]5(C)[C@H](CC[C@@H]6[C@@H]5C[C@@H](O)[C@]5(C)[C@@H](C7=CC(=O)OC7)CC[C@]65O)C4)O[C@@H]3C)O[C@@H]2C)C[C@H](O)[C@@H]1O [digoxin]	3.4±0.8 ×10^-5cm/s	–	–	–	–	–	–	–	–	–
CN1CCC[C@@H]1CCO[C@](C)(c1ccccc1)c1ccc(Cl)cc1 [clemastine]	–	about 65%	~165	clemastine is a P-gp substrate	non-P-gp-substrate	very slightly soluble in water	no cytotoxic effect	approximately 21 hr	0.7 to 2	1.5 to 4.4
